Several values for one entry are separate records, joined by “and”; a condition that tells them apart may be missing. Equal entries are not always repeated. Entries after “also recorded” stand apart in the source; their conditions may differ. Where two headings read alike, the source gives them in different places.
Key:
[1] = system: mouse T lymphocytes; assay: T-cell proliferation assay (ionomycin + PMA induced, tritiated thymidine uptake); format: cell-based, mouse (C57B1/6)
Protocol: The principle of this assay is to measure the proliferation of mouse T lymphocytes stimulated with the combination of ionomycin plus PMA.
Cells were pelleted by centrifugation at 1500 rpm for 8 minutes. Contaminating red cells were removed by treating the pellet with ammonium chloride lysing buffer (GIBCO) for 2 minutes at 4° C. Cold medium was added and cells were again centrifuged at 1500 rpm for 8 minutes. T lymphocytes were then isolated by separation of the cell suspension on nylon wool columns as follows: Nylon wool columns were prepared by packing approximately 4 grams of washed and dried nylon wool into 20 ml plastic syringes. The columns were sterilized by autoclaving at 250° F. for 30 minutes. Nylon wool columns were wetted with warm (37° C.) culture medium and rinsed with the same medium. Washed spleen cells resuspended in warm medium were slowly applied to the nylon wool. The columns were then incubated in an upright position at 37° C. for 1 hour. Non-adherent T lymphocytes were eluted from the columns with warm culture medium and the cell suspensions were spun as above.
The cell suspension was immediately distributed into 96 well flat-bottom microculture plates (Costar) at 200 μl/well. […] The proliferation of T lymphocytes was assessed by measurement of tritiated thymidine incorporation. After 44 hours of culturing, the cells were pulse-labelled with 2 μCi/well of tritiated thymidine (NEN, Cambridge, Mass.). After another 4 hours of incubation, cultures were harvested on glass fiber filters using a multiple sample harvester. Radioactivity of filter discs corresponding to individual wells was measured by standard liquid scintillation counting methods (Betacounter). Mean counts per minute of replicate wells were calculated and the results expressed as percent inhibition of tritiated thymidine uptake (proliferation) as follows: [formula]

[2] = reputed; EPO Publication No. 0184162; cited from earlier work

SMILES	IC50 ([1]; 5 additional experiments, individual values)	Inhibition of T-cell proliferation after addition of IL2 ([1]; 50 units/ml recombinant IL2 at the initiation of culture)	IC50 ([1]; Mus musculus, T-lymphocyte, based on 5 additional experiments, read-out: IC50, general range)	IC50 ([1]; Mus musculus, T-lymphocyte, mean of all 6 runs, ± SEM, read-out: mean IC50)	IC50 ([1]; Mus musculus, T-lymphocyte, run of the Table, read-out: IC50)	inhibition at 0.0008 µM ([1]; Mus musculus, T-lymphocyte, Compound I 0.8 nM, read-out: Percent of Inhibition)	inhibition at 0.0016 µM ([1]; Mus musculus, T-lymphocyte, Compound I 1.6 nM, read-out: Percent of Inhibition)	inhibition at 0.0031 µM ([1]; Mus musculus, T-lymphocyte, Compound I 3.1 nM, read-out: Percent of Inhibition)	inhibition at 0.0062 µM ([1]; Mus musculus, T-lymphocyte, Compound I 6.2 nM, read-out: Percent of Inhibition)	inhibition at 0.0125 µM ([1]; Mus musculus, T-lymphocyte, Compound I 12.5 nM, read-out: Percent of Inhibition)	inhibition at 0.025 µM ([1]; Mus musculus, T-lymphocyte, Compound I 25.0 nM, read-out: Percent of Inhibition)	inhibition at 0.05 µM ([1]; Mus musculus, T-lymphocyte, Compound I 50.0 nM, read-out: Percent of Inhibition)	immunosuppressant activity ([1]; qualitative statement)	times more effective than cyclosporin [2]
CC[C@@H]1C=C2COC1(O)C[C@H](O)[C@@H](C)[C@@H](/C(C)=C/[C@@H]1CC[C@@H](O)[C@H](OC)C1)OC(=O)[C@@H]1CCCCN1C(=O)C(=O)[C@]1(O)O[C@H]([C@@H](OC)C[C@@H](C)C2)[C@@H](OC)C[C@H]1C [Compound I]	1.92 ng/mL and 5.20 ng/mL and 4.80 ng/mL and 4.50 ng/mL	reversed	1.57 to 5.2 ng/mL	4.36 ± 1.7 nM	3.17 ng/mL	16%	19%	55%	78%	91%	94%	94%	positive inhibition of T-cell activation; also recorded: positive immunosuppressive activity	
C=CC[C@@H]1/C=C(\C)C[C@H](C)C[C@H](OC)[C@H]2O[C@@](O)(C(=O)C(=O)N3CCCC[C@H]3C(=O)O[C@H](/C(C)=C/[C@@H]3CC[C@@H](O)[C@H](OC)C3)[C@H](C)[C@@H](O)CC1=O)[C@H](C)C[C@@H]2OC [FK-506]														100 times
